Measured values published in the supplement of paper PMC5908809.

How the values were obtained:
[1] = system: normal NK cells expanded with K562-aAPC; experiment: drug sensitivity score (DSS) (DSS units); higher = more sensitive; extreme values may be limits of the assay; conditions: 72 h; IL-2 2.5 ng/mL
Description: (§1)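 Drug sensitivity and resistance testing on K562-aAPC-expanded normal NK cells: 5 concentrations (10-fold steps over a 10,000-fold range), 72 h at 37 °C, viability by CellTiter-Glo normalised to DMSO and benzethonium chloride controls; DSS from the fitted curve.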

[2] = system: normal NK cells expanded with K562-aAPC; experiment: percent inhibition of viability; higher = more inhibition; conditions: 72 h, IL-2 2.5 ng/mL
Description: as §1

[3] = system: NK-YS (IL-2 2.5 ng/mL); experiment: as above; conditions: 72 h
[4] = system: NKL (IL-2 2.5 ng/mL); experiment: as above; conditions: 72 h
[5] = system: KAI3 (IL-2 2.5 ng/mL); experiment: as above; conditions: 72 h
[6] = system: normal primary NK cells, pool 3 (3 donors) (IL-2 2.5 ng/mL); experiment: as above; conditions: 72 h
[7] = system: SNK-6 (IL-2 2.5 ng/mL); experiment: as above; conditions: 72 h
[8] = system: normal primary NK cells, pool 2 (3 donors) (IL-2 2.5 ng/mL); experiment: as above; conditions: 72 h
[9] = system: normal primary NK cells, pool 1 (3 donors), resting (IL-2 0 ng/mL); experiment: as above; conditions: 72 h
[10] = system: YT (IL-2 2.5 ng/mL); experiment: as above; conditions: 72 h
[11] = system: NK-92 (IL-2 2.5 ng/mL); experiment: as above; conditions: 72 h
[12] = system: DERL-7 (IL-2 2.5 ng/mL); experiment: as above; conditions: 72 h
[13] = system: normal primary NK cells, pool 1 (3 donors) (IL-2 2.5 ng/mL); experiment: as above; conditions: 72 h
[14] = system: KHYG-1 (IL-2 2.5 ng/mL); experiment: as above; conditions: 72 h
[15] = system: IMC-1 (IL-2 20 ng/mL); experiment: as above; conditions: 72 h
[16] = system: NK-YS (IL-2 2.5 ng/mL); experiment: drug sensitivity score (DSS) (DSS units); higher = more sensitive; extreme values may be limits of the assay; conditions: 72 h
[17] = system: NKL (IL-2 2.5 ng/mL); experiment: as above; conditions: 72 h
[18] = system: KAI3 (IL-2 2.5 ng/mL); experiment: as above; conditions: 72 h
[19] = system: normal primary NK cells, pool 3 (3 donors) (IL-2 2.5 ng/mL); experiment: as above; conditions: 72 h
[20] = system: SNK-6 (IL-2 2.5 ng/mL); experiment: as above; conditions: 72 h
[21] = system: normal primary NK cells, pool 2 (3 donors) (IL-2 2.5 ng/mL); experiment: as above; conditions: 72 h
[22] = system: normal primary NK cells, pool 1 (3 donors), resting (IL-2 0 ng/mL); experiment: as above; conditions: 72 h
[23] = system: YT (IL-2 2.5 ng/mL); experiment: as above; conditions: 72 h
[24] = system: NK-92 (IL-2 2.5 ng/mL); experiment: as above; conditions: 72 h
[25] = system: DERL-7 (IL-2 2.5 ng/mL); experiment: as above; conditions: 72 h
[26] = system: normal primary NK cells, pool 1 (3 donors) (IL-2 2.5 ng/mL); experiment: as above; conditions: 72 h
[27] = system: KHYG-1 (IL-2 2.5 ng/mL); experiment: as above; conditions: 72 h
[28] = system: IMC-1 (IL-2 20 ng/mL); experiment: as above; conditions: 72 h

Nc1ccn([C@@H]2O[C@H](CO)[C@@H](O)C2(F)F)c(=O)n1 [Gemcitabine] (max concentration tested 1000 nM)
Conditions | drug sensitivity score
[1] | 24.5
[16] | 28.4
[17] | 38.4
[18] | 27.6
[19] | 3.49
[20] | 25.1
[21] | 3.97
[22] | 0.38
[23] | 17.4
[24] | 31
[25] | 23.7
[26] | 0.96
[27] | 32.6
[28] | 30.6

percent inhibition of viability [%]
Conditions | 0.1 nM | 1 nM | 10 nM | 100 nM | 1000 nM
[2] | 1.65 | 34.8 | 55.6 | 74.6 | 88.2
[3] | -3.23 | -1.72 | 87.7 | 97.1 | 101
[4] | -10.6 | 68.9 | 102 | 106 | 104
[5] | -18.3 | 3.34 | 79.8 | 98.3 | 101
[6] | -9.85 | -6.72 | 16.8 | 12.6 | 38
[7] | 18.4 | 13.8 | 57.7 | 94.6 | 100
[8] | -12.2 | -6.97 | 19.6 | 14.7 | 29.7
[9] | -12.2 | -40.4 | -21.2 | -27.6 | 23.4
[10] | 2.42 | -2.18 | 20.1 | 78.2 | 65
[11] | -6.25 | 12.2 | 92.2 | 104 | 104
[12] | -4.73 | -12.3 | 44.9 | 99.7 | 99.8
[13] | -2.78 | -14 | 4.7 | -1.17 | 26.4
[14] | 2.22 | 12.5 | 101 | 105 | 105
[15] | -7.53 | 2 | 99.1 | 101 | 101

C/C(=C\c1csc(C)n1)[C@@H]1C[C@@H]2O[C@]2(C)CCC[C@H](C)[C@H](O)[C@@H](C)C(=O)C(C)(C)[C@@H](O)CC(=O)N1 [Ixabepilone] (max concentration tested 1000 nM)
Conditions | drug sensitivity score
[1] | 2.77
[16] | 3.45
[17] | 4.34
[18] | 2.26
[19] | 0
[20] | 3.82
[21] | 0
[22] | 0
[23] | 5.3
[24] | 4.08
[25] | 5.27
[26] | 0
[27] | 5.84
[28] | 4.92

percent inhibition of viability [%]
Conditions | 0.1 nM | 1 nM | 10 nM | 100 nM | 1000 nM
[2] | -1.18 | -8.46 | -3.17 | -2.89 | 56.2
[3] | -10.3 | -9.56 | -5.83 | -4.02 | 68.7
[4] | 1.14 | -23.1 | -11 | -7.09 | 87.4
[5] | -14.5 | -15 | -11.8 | -8.42 | 52.3
[6] | -11.4 | -5.18 | -5.26 | -11.3 | 0.09
[7] | 6.18 | 12.8 | -13.9 | -4.41 | 75.4
[8] | -8.83 | -5.74 | -1.71 | -8.89 | 4.45
[9] | -34.8 | -25.5 | -23.3 | -10.4 | -12
[10] | -0.47 | -4.36 | -8.15 | 1.21 | 92.3
[11] | -7.7 | -17.5 | -9.17 | -20.4 | 92
[12] | -1.92 | -1.52 | 3.37 | -3.24 | 99.5
[13] | -13 | -15.1 | -13.4 | -8.88 | -3.61
[14] | -4.44 | -6.03 | -7.83 | 2.2 | 99.9
[15] | -7.65 | -4.14 | -5.18 | -8.88 | 99.5

CNC(=O)c1ccc(C)c(-n2c(C)cc(OCc3ccc(F)cc3F)c(Br)c2=O)c1 (max concentration tested 1000 nM)
Conditions | drug sensitivity score
[1] | 0
[16] | 2.15
[17] | 5.52
[18] | 4.23
[19] | 0
[20] | 0
[21] | 0
[22] | 0
[23] | 0.89
[24] | 1.12
[25] | 0
[26] | 3.24
[27] | 0.02
[28] | 0.02

percent inhibition of viability [%]
Conditions | 0.1 nM | 1 nM | 10 nM | 100 nM | 1000 nM
[2] | -9.29 | -8.5 | -9.81 | -3.39 | 11.1
[3] | -6.34 | -5.21 | 0.76 | 7.92 | 26.5
[4] | -10.5 | -7 | 9.32 | 26.1 | 43.8
[5] | -0.38 | 1.93 | 8.49 | 20.8 | 36
[6] | -6.51 | -4.02 | 4.48 | 7.49 | 0.09
[7] | -18.8 | -0.3 | -20.7 | -13.9 | -14.7
[8] | -5.3 | -4.39 | 0.85 | -1.04 | -5.85
[9] | 4.88 | 3.54 | 13.7 | 4.12 | 7.14
[10] | -3.68 | -3.72 | -2.87 | 1.27 | 21.9
[11] | -1.67 | -6.84 | -3.84 | -1.12 | 28.7
[12] | -0.31 | -4.89 | -4.27 | 2.58 | 1.48
[13] | 0.91 | 0.08 | 13.3 | 13.8 | 17.8
[14] | -4.44 | -7.81 | -8.38 | -3.53 | 12.3
[15] | -9.65 | -8.9 | -7.96 | -3.82 | 12.4

CN(C[C@@H]1COCCO1)S(=O)(=O)Nc1ccc2ccc3ncc(-c4cnn(C)c4)cc3c(=O)c2c1 [MK-2461] (max concentration tested 10000 nM)
Conditions | drug sensitivity score
[1] | 1.13
[16] | 2.18
[17] | 2.56
[18] | 4.68
[19] | 0
[20] | 0.21
[21] | 0.24
[22] | 0.54
[23] | 0
[24] | 0
[25] | 4.49
[26] | 0.46
[27] | 3.41
[28] | 0

percent inhibition of viability [%]
Conditions | 1 nM | 10 nM | 100 nM | 1000 nM | 10000 nM
[2] | 2.16 | -3.15 | -5.97 | -1.83 | 29.5
[3] | 0.46 | -3.34 | -0.08 | 3.95 | 33.3
[4] | -3.44 | -1.59 | -12 | 8.79 | 30
[5] | -1.76 | -2.96 | 7.38 | 21.6 | 44.7
[6] | -12.9 | -6.11 | -6.1 | -12.5 | -1.21
[7] | 0.33 | -7.16 | -3.05 | -24.8 | 19.4
[8] | -7.85 | -3.63 | -2.59 | -2.71 | 16.6
[9] | -17.8 | -18.1 | -32.3 | -29.1 | 26.9
[10] | -0.04 | -0.58 | -1.61 | 0.19 | 10.3
[11] | 1.01 | -5.16 | -10.7 | 7.81 | 9.19
[12] | -6.68 | -3.14 | -6.19 | 10.2 | 52.8
[13] | -3.44 | -9.95 | -8.02 | -7.44 | 21.8
[14] | -0.18 | -3.51 | -0.87 | 6.75 | 44.4
[15] | 1.71 | -0.63 | 3.27 | -5.3 | -50.1

CO[C@@]12[C@H](COC(N)=O)C3=C(C(=O)C(C)=C(N)C3=O)N1C[C@@H]1N[C@@H]12 [Mitomycin C] (max concentration tested 10000 nM)
Conditions | drug sensitivity score
[1] | 1.99
[16] | 17.2
[17] | 21.9
[18] | 9.91
[19] | 9.16
[20] | 14.8
[21] | 10.3
[22] | 6.45
[23] | 4.01
[24] | 9.13
[25] | 0
[26] | 2.74
[27] | 16.3
[28] | 6.29

percent inhibition of viability [%]
Conditions | 1 nM | 10 nM | 100 nM | 1000 nM | 10000 nM
[2] | -6.75 | -6.89 | -6.31 | 1.66 | 36.7
[3] | -3.94 | -3.78 | 7.6 | 89.1 | 101
[4] | -16.1 | -7.78 | 25.9 | 99.1 | 99.9
[5] | -6 | 1.39 | 6.47 | 42.2 | 90.1
[6] | -2.62 | 8.35 | 8.1 | 31.6 | 94.6
[7] | 8 | -22.7 | -15.3 | 85.5 | 90
[8] | -2.16 | 4.57 | 8.07 | 44.3 | 91.9
[9] | 3.33 | 21.6 | 12.1 | 19.2 | 72.1
[10] | -7.65 | -5.91 | -4.19 | -0.39 | 73.2
[11] | -6.49 | -1.15 | -5.66 | 25.2 | 96
[12] | -3.54 | 4.32 | -0.35 | -4.88 | 11.3
[13] | -7.25 | 13.3 | 6.96 | 7.9 | 35
[14] | -11.3 | -10.2 | -3.76 | 90.6 | 106
[15] | -2.35 | 2.42 | 2.75 | 5.66 | 98.4
